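Cultured in 96-well plates, cells were exposed to test compound for 48 hours across five concentrations. TGI: concentration producing complete growth inhibition.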
How the values were obtained:
Assay in all cases: NCI anticancer screen, dose series, 48 h
HOP-92 NSCLC = test system: HOP-92 NSCLC
MOLT-4 leukemia = test system: MOLT-4 leukemia
OVCAR-4 ovarian = test system: OVCAR-4 ovarian
786-0 renal = test system: 786-0 renal
OVCAR-5 ovarian = test system: OVCAR-5 ovarian
SNB-75 CNS = test system: SNB-75 CNS
SN12C renal = test system: SN12C renal
LOX IMVI melanoma = test system: LOX IMVI melanoma
MDA-MB-231 breast = test system: MDA-MB-231 breast
NCI-H226 lung = test system: NCI-H226 lung

`CN1CCN(C2=C(Cl)C3(OCCS3)C(F)(F)C2(F)F)CC1` (stereo not given) was tested, and the TGI (HOP-92 NSCLC) was > 100 µM, the TGI (MOLT-4 leukemia) was > 100 µM and the TGI (OVCAR-4 ovarian) was > 100 µM. For the same compound, the TGI (786-0 renal) was > 100 µM, the TGI (OVCAR-5 ovarian) was > 100 µM and the TGI (SNB-75 CNS) was > 100 µM. The TGI (SN12C renal) was > 100 µM, the TGI (LOX IMVI melanoma) was > 100 µM and the TGI (MDA-MB-231 breast) was > 100 µM. The TGI (NCI-H226 lung) was > 100 µM.
In the case of `O=C1C=CC(=O)C(CNc2ccc(C(=O)OCc3ccccc3)cc2)=C1`, the TGI (HOP-92 NSCLC) is reported as 3.8 µM, the TGI (MOLT-4 leukemia) is reported as > 100 µM and the TGI (OVCAR-4 ovarian) is reported as 10.4 µM. It also gave a TGI (786-0 renal) of 13.6 µM, a TGI (OVCAR-5 ovarian) of 29.5 µM and a TGI (SNB-75 CNS) of 18.4 µM. It also gave a TGI (SN12C renal) of 19.3 µM, a TGI (LOX IMVI melanoma) of 17.8 µM and a TGI (MDA-MB-231 breast) of 24.9 µM. For the same compound, the TGI (NCI-H226 lung) was 28 µM.
In the case of `O=C(CC(=O)Nc1ccccc1)NNC(c1cc(N=Nc2ccc(Br)cc2)ccc1O)P(O)O` (stereo not given), the TGI (HOP-92 NSCLC) is reported as > 10 µM, the TGI (MOLT-4 leukemia) is reported as 4.15 µM and the TGI (OVCAR-4 ovarian) is reported as > 10 µM. The TGI (786-0 renal) was > 10 µM, the TGI (OVCAR-5 ovarian) was > 10 µM and the TGI (SNB-75 CNS) was > 10 µM. The TGI (SN12C renal) was > 10 µM, the TGI (LOX IMVI melanoma) was > 10 µM and the TGI (MDA-MB-231 breast) was > 10 µM. For the same compound, the TGI (NCI-H226 lung) was 9.43 µM.
In the case of `CC1(C)N=C2C(=O)c3c([nH]c4ccccc34)[C@]3(C)CCC1CC23` (stereo not given in full), the TGI (HOP-92 NSCLC) is reported as > 6.25 µM, the TGI (MOLT-4 leukemia) is reported as > 6.25 µM and the TGI (OVCAR-4 ovarian) is reported as > 6.25 µM. The TGI (786-0 renal) was > 6.25 µM, the TGI (OVCAR-5 ovarian) was > 6.25 µM and the TGI (SNB-75 CNS) was > 6.25 µM. For the same compound, the TGI (SN12C renal) was > 6.25 µM, the TGI (LOX IMVI melanoma) was > 6.25 µM and the TGI (MDA-MB-231 breast) was > 6.25 µM. The TGI (NCI-H226 lung) was > 6.25 µM.

Source: PubChem BioAssay (NCI)
